In ChEMBL document CHEMBL1201862, “PubChem BioAssay data set” (2004):
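1) Cells in 96-well plates. 2) Compound, 48 h, 5 concentrations. 3) Linear interpolation between surrounding doses. 4) Unreached endpoint = highest concentration. Abbreviation: GI50, concentration required for 50% inhibition of growth.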 Activity calls are given as the source filed them. Cut-off read from the data, not from the text of the source: active = GI50 up to about 1.1 µM and inactive = higher.

How the values were obtained:
Test in all cases: inhibition of tumour cell growth, NCI panel, 48 h
[1] = tested on: 786-0
[2] = tested on: A549
[3] = tested on: BT-549
[4] = tested on: CAKI-1
[5] = tested on: CCRF-CEM
[6] = tested on: HOP-92
[7] = tested on: Hs-578T
[8] = tested on: IGROV-1
[9] = tested on: NCI-H226
[10] = tested on: NCI-H23
[11] = tested on: NCI/ADR-RES
[12] = tested on: OVCAR-4
[13] = tested on: SF-268
[14] = tested on: SNB-75
[15] = tested on: SR
[16] = tested on: UACC-257
[17] = tested on: UACC-62
[18] = tested on: UO-31
[19] = tested on: KM12
[20] = tested on: RPMI-8226

With C1COCCN1.CN(C)c1ccc(-c2c(C#N)c(N)nc(S)c2C#N)cc1 the GI50 [1] was > 100 µM (inactive), the GI50 [2] was > 100 µM (inactive) and the GI50 [3] was 83 µM (inactive). The GI50 [4] was 43.9 µM (inactive), the GI50 [5] was 38.5 µM (inactive) and the GI50 [6] was 21.8 µM (inactive). The GI50 [7] was 4.57 µM (inactive), the GI50 [8] was 40.1 µM (inactive) and the GI50 [9] was 22.6 µM (inactive). The GI50 [10] was 60 µM (inactive), the GI50 [11] was > 100 µM (inactive) and the GI50 [12] was 35 µM (inactive). The GI50 [13] was > 100 µM (inactive), the GI50 [14] was 34.3 µM (inactive) and the GI50 [15] was 23.2 µM (inactive). For the same molecule, the GI50 [16] was 82.4 µM (inactive), the GI50 [17] was 35 µM (inactive) and the GI50 [18] was 64.1 µM (inactive).

O=C(O)Cc1c(O)ccc2ccccc12 was tested, and the GI50 [1] was > 100 µM (inactive), the GI50 [2] was > 100 µM (inactive) and the GI50 [3] was > 100 µM (inactive). The GI50 [4] was > 100 µM (inactive), the GI50 [6] was > 100 µM (inactive) and the GI50 [7] was > 100 µM (inactive). The GI50 [8] was > 100 µM (inactive), the GI50 [19] was > 100 µM (inactive) and the GI50 [9] was > 100 µM (inactive). The GI50 [10] was > 100 µM (inactive), the GI50 [11] was > 100 µM (inactive) and the GI50 [12] was > 100 µM (inactive). For the same molecule, the GI50 [20] was > 100 µM (inactive), the GI50 [13] was > 100 µM (inactive) and the GI50 [14] was > 100 µM (inactive). For the same molecule, the GI50 [15] was > 100 µM (inactive), the GI50 [16] was > 100 µM (inactive) and the GI50 [17] was > 100 µM (inactive).

With CCCc1c2c3ccccc3nc-2nc2ccccn12 the GI50 [1] was 28.4 µM (inactive), the GI50 [2] was 83.4 µM (inactive) and the GI50 [3] was > 100 µM (inactive). The GI50 [4] was > 100 µM (inactive), the GI50 [5] was > 100 µM (inactive) and the GI50 [6] was 36.5 µM (inactive). For the same molecule, the GI50 [7] was > 100 µM (inactive), the GI50 [8] was 63.5 µM (inactive) and the GI50 [19] was 49.4 µM (inactive). For the same molecule, the GI50 [10] was 0.863 µM (active), the GI50 [11] was > 100 µM (inactive) and the GI50 [12] was 50.5 µM (inactive). For the same molecule, the GI50 [20] was 41.9 µM (inactive), the GI50 [13] was 24.4 µM (inactive) and the GI50 [14] was > 100 µM (inactive). For the same molecule, the GI50 [15] was 49.1 µM (inactive), the GI50 [16] was > 100 µM (inactive) and the GI50 [17] was 72.3 µM (inactive). For the same molecule, the GI50 [18] was 56.8 µM (inactive).

With CCOC(=O)/C(C#N)=C/c1coc2cc(C)cc(C)c2c1=O the GI50 [1] was > 100 µM (inactive), the GI50 [2] was > 100 µM (inactive) and the GI50 [3] was > 100 µM (inactive). The GI50 [4] was > 100 µM (inactive), the GI50 [5] was > 100 µM (inactive) and the GI50 [6] was 95.1 µM (inactive). For the same molecule, the GI50 [7] was > 100 µM (inactive), the GI50 [8] was > 100 µM (inactive) and the GI50 [19] was > 100 µM (inactive). For the same molecule, the GI50 [9] was > 100 µM (inactive), the GI50 [10] was > 100 µM (inactive) and the GI50 [11] was > 100 µM (inactive). For the same molecule, the GI50 [20] was > 100 µM (inactive), the GI50 [13] was 66.4 µM (inactive) and the GI50 [14] was > 100 µM (inactive). For the same molecule, the GI50 [15] was > 100 µM (inactive), the GI50 [16] was > 100 µM (inactive) and the GI50 [17] was > 100 µM (inactive). For the same molecule, the GI50 [18] was 59 µM (inactive).

In the case of CC(=O)O[C@H]1C(=O)[C@@]2(C)C(C(OC(=O)c3ccccc3)[C@]3(O)CC(OC(=O)C(O)C(NC(=O)c4ccccc4)c4ccc(F)cc4)C(C)=C1C3(C)C)[C@]1(OC(C)=O)CO[C@@H]1C[C@@H]2O (stereo not given in full), the GI50 [1] is reported as 0.00152 µM (active), the GI50 [2] is reported as 0.00104 µM (active) and the GI50 [3] is reported as 0.00152 µM (active). The GI50 [4] was 0.0942 µM (active), the GI50 [5] was 0.0014 µM (active) and the GI50 [6] was 3.43 µM (inactive). For the same molecule, the GI50 [7] was < 0.001 µM (active), the GI50 [8] was 0.00365 µM (active) and the GI50 [19] was < 0.001 µM (active). For the same molecule, the GI50 [10] was 0.0011 µM (active), the GI50 [11] was 0.647 µM (active) and the GI50 [12] was 0.0904 µM (active). The GI50 [20] was < 0.001 µM (active), the GI50 [13] was < 0.001 µM (active) and the GI50 [14] was 0.00168 µM (active). For the same molecule, the GI50 [15] was < 0.001 µM (active), the GI50 [16] was 1.17 µM (inactive) and the GI50 [17] was 0.00138 µM (active). The GI50 [18] was 0.166 µM (active).

For O=C(O)C1(Cc2ccccc2)Cc2cc3c(cc2C1)CCC3, the GI50 [1] was > 100 µM (inactive), the GI50 [2] was 51.4 µM (inactive) and the GI50 [3] was > 100 µM (inactive). The GI50 [5] was 45.1 µM (inactive), the GI50 [6] was 21 µM (inactive) and the GI50 [7] was 75.2 µM (inactive). The GI50 [8] was > 100 µM (inactive), the GI50 [19] was 68.4 µM (inactive) and the GI50 [9] was > 100 µM (inactive). The GI50 [10] was > 100 µM (inactive), the GI50 [11] was 89.3 µM (inactive) and the GI50 [12] was > 100 µM (inactive). For the same molecule, the GI50 [20] was 58.1 µM (inactive), the GI50 [13] was 78.9 µM (inactive) and the GI50 [14] was > 100 µM (inactive). The GI50 [15] was > 100 µM (inactive), the GI50 [16] was > 100 µM (inactive) and the GI50 [17] was > 100 µM (inactive). The GI50 [18] was 95.3 µM (inactive).

For Cc1cc(C)nc(NS(=O)(=O)c2ccc(Nc3c4ccccc4nc4c(C(=O)NNCCO)cccc34)cc2)n1, the GI50 [1] was > 100 µM (inactive), the GI50 [2] was > 100 µM (inactive) and the GI50 [3] was > 100 µM (inactive). For the same molecule, the GI50 [4] was > 100 µM (inactive), the GI50 [5] was 21 µM (inactive) and the GI50 [6] was > 100 µM (inactive). For the same molecule, the GI50 [7] was > 100 µM (inactive), the GI50 [8] was > 100 µM (inactive) and the GI50 [19] was > 100 µM (inactive). For the same molecule, the GI50 [10] was > 100 µM (inactive), the GI50 [11] was > 100 µM (inactive) and the GI50 [12] was > 100 µM (inactive). The GI50 [20] was 15.7 µM (inactive), the GI50 [13] was > 100 µM (inactive) and the GI50 [15] was 25.4 µM (inactive). For the same molecule, the GI50 [16] was > 100 µM (inactive), the GI50 [17] was 13.7 µM (inactive) and the GI50 [18] was > 100 µM (inactive).
